{
  "source": "EPA's ToxValDB 9.5",
  "key": {"Mus musculus": {"system": "Mus musculus", "conditions": "oral"}, "Rattus norvegicus": {"system": "Rattus norvegicus", "conditions": "oral, gavage"}, "[1]": {"conditions": "developmental, duration: 20 days, gavage, F, ICR, Developmental: Decreases in pup body weight / delays in eye opening, vaginal opening, and first estrous / decreases in ovarian follicles…"}, "[2]": {"conditions": "developmental, duration: 15 days, F, Body Weight: 12% decrease in maternal body weight + Developmental: 12-13% decrease in fetal body weights"}, "[3]": {"conditions": "developmental, duration: 15 days, F, Body Weight: 31% decrease in maternal body weight gain + Developmental: Decreases in fetal body weight (9%) and delays in hindlimb …"}, "[4]": {"conditions": "reproduction developmental, duration: 70 days, Sprague-Dawley, Body Weight: Medullary/papillary tubular and ductal hyperplasia in P0 and F1"}, "[5]": {"conditions": "subchronic, duration: 90 days, M, Sprague-Dawley, Hematological: Decreased hemoglobin (4.9%) and hematocrit (5.2%)"}, "[6]": {"conditions": "subchronic, duration: 90 days, Sprague-Dawley, Gastrointestinal: Necrosis of individual squamous cells in forestomach and hyperplasia and hyperkeratosis of limiting ridge + Renal: …"}, "[7]": {"conditions": "developmental, duration: 13 days, gavage, F, CD1, Developmental: 12.5% decrease in birth weight and delayed eye opening at ?350 mg/kg/day / increased pup mortality (PND 0-3) and decreased …"}, "[8]": {"conditions": "developmental, duration: 13 days, gavage, F, CD1, Developmental: Increase in stillborn pups and 12.5% decrease in birth weight"}, "[9]": {"conditions": "chronic, duration: 93 days, F, Endocrine: Thyroid follicular epithelial hypertrophy"}, "[10]": {"conditions": "chronic, duration: 93 days, M/F, Hematological: Decreased RBC, hemoglobin, and hematocrit / increased reticulocytes / erythroid hypertrophy in bone marrow and …"}, "[11]": {"conditions": "chronic, duration: 93 days, M/F, Respiratory: Degeneration/atrophy of nasal olfactory epithelium at ?100 mg/kg/day and respiratory metaplasia at 500 mg/kg/day"}, "[12]": {"conditions": "chronic, duration: 93 days, M, Body Weight: 19% decrease in body weight gain"}, "[13]": {"conditions": "developmental, duration: 20 days, F, Body Weight: Decreased maternal weight gain (19%) + Developmental: Decreased fetal weight (10%)"}, "[14]": {"conditions": "developmental, duration: 126 days, M/F, Developmental: Decreased pup body weight (17-18%) during lactation period"}, "[15]": {"conditions": "reproduction developmental, duration: 126 days, M, Body Weight: Decreased weight gain (12%) / decreased maternal weight gain during GDs 0-7 and increased maternal weight gain during …"}, "[16]": {"conditions": "subchronic, duration: 44 days, F, Immunotoxicological: Thymic atrophy in 3/9 females"}, "[17]": {"conditions": "subchronic, duration: 44 days, M, Hematological: Decreased hemoglobin levels / increased reticulocytes at 315 mg/kg/day"}, "[18]": {"conditions": "subchronic, duration: 90 days, M/F, Sprague-Dawley, Hematological: Slight decreases in RBC, hemoglobin, and hematocrit and increases in reticulocytes"}},
  "data": [
    {"compound": "O=S(=O)(O)C(F)(F)C(F)(F)C(F)(F)C(F)(F)F", "note": "[Perfluorobutanesulfonic acid]", "values": [
      {"measurement": "NOAEL", "setting": "Mus musculus; developmental, duration: 20 days, gavage, F, ICR", "result": 500, "unit": "mg/kg-day"},
      {"measurement": "LOAEL", "setting": "Mus musculus; [1]", "result": 200, "unit": "mg/kg-day"},
      {"measurement": "NOAEL", "setting": "Mus musculus; [1]", "result": 50, "unit": "mg/kg-day"},
      {"measurement": "NOAEL", "setting": "Mus musculus; subchronic, duration: 6 weeks, diet, M, Hepatic: Decreased plasma triglyceride levels", "result": 30, "unit": "mg/kg-day"},
      {"measurement": "LOAEL", "setting": "Rattus norvegicus; [2]", "result": 2000, "unit": "mg/kg-day"},
      {"measurement": "NOAEL", "setting": "Rattus norvegicus; [2]", "result": 1000, "unit": "mg/kg-day"},
      {"measurement": "LOAEL", "setting": "Rattus norvegicus; [3]", "result": 1000, "unit": "mg/kg-day"},
      {"measurement": "NOAEL", "setting": "Rattus norvegicus; [3]", "result": 300, "unit": "mg/kg-day"},
      {"measurement": "NOAEL", "setting": "Rattus norvegicus; reproduction developmental, duration: 70 days, Sprague-Dawley, Body Weight: Increased liver weight in males at ?300 mg/kg/day", "result": 1000, "unit": "mg/kg-day"},
      {"measurement": "LOAEL", "setting": "Rattus norvegicus; [4]", "result": 300, "unit": "mg/kg-day"},
      {"measurement": "NOAEL", "setting": "Rattus norvegicus; [4]", "result": 100, "unit": "mg/kg-day"},
      {"measurement": "NOAEL", "setting": "Rattus norvegicus; short-term, duration: 28 days, Sprague-Dawley, Hepatic: Increased absolute and relative liver weight at 900 mg/kg/day + Immunotoxicological: No histological alterations + Neurological: No…", "result": 900, "unit": "mg/kg-day"},
      {"measurement": "LOAEL", "setting": "Rattus norvegicus; [5]", "result": 200, "unit": "mg/kg-day"},
      {"measurement": "NOAEL", "setting": "Rattus norvegicus; [5]", "result": 60, "unit": "mg/kg-day"},
      {"measurement": "NOAEL", "setting": "Rattus norvegicus; subchronic, duration: 90 days, Sprague-Dawley", "result": 600, "unit": "mg/kg-day"},
      {"measurement": "LOAEL", "setting": "Rattus norvegicus; [6]", "result": 600, "unit": "mg/kg-day"},
      {"measurement": "NOAEL", "setting": "Rattus norvegicus; [6]", "result": 200, "unit": "mg/kg-day"}
    ]},
    {"compound": "O=C(O)C(F)(F)C(F)(F)C(F)(F)C(F)(F)C(F)(F)F", "note": "[Perfluorohexanoic acid]", "values": [
      {"measurement": "LOAEL", "setting": "Mus musculus; [7]", "result": 350, "unit": "mg/kg-day"},
      {"measurement": "NOAEL", "setting": "Mus musculus; [7]", "result": 100, "unit": "mg/kg-day"},
      {"measurement": "LOAEL", "setting": "Mus musculus; [8]", "result": 175, "unit": "mg/kg-day"},
      {"measurement": "NOAEL", "setting": "Mus musculus; [8]", "result": 35, "unit": "mg/kg-day"},
      {"measurement": "LOAEL", "setting": "Rattus norvegicus; acute, duration: 1 days, F, Sprague-Dawley, Death: 1/4 died at […] / 3/3 died at 5,000 mg/kg/day", "result": 1750, "unit": "mg/kg-day"},
      {"measurement": "LOAEL", "setting": "Rattus norvegicus; acute, duration: 1 days, F, Sprague-Dawley, Neurological: Abnormal gait, salivation, ataxia, lethargy", "result": 175, "unit": "mg/kg-day"},
      {"measurement": "LOAEL", "setting": "Rattus norvegicus; chronic, duration: 104 weeks, F, Sprague-Dawley, Death: 36, 43, 33, and 22% survival rate in females at 0, 5, 30, and 200 mg/kg/day, respectivel", "result": 200, "unit": "mg/kg-day"},
      {"measurement": "LOAEL", "setting": "Rattus norvegicus; chronic, duration: 104 weeks, F, Sprague-Dawley, Hematological: 8.1% reduction in mean RBC count and 5.2% reduction in hemoglobin at 51 weeks / 23.6 and 53.6% increase in reticulocyte …", "result": 200, "unit": "mg/kg-day"},
      {"measurement": "NOAEL", "setting": "Rattus norvegicus; chronic, duration: 104 weeks, M, Sprague-Dawley, Hematological: 8.1% reduction in mean RBC count and 5.2% reduction in hemoglobin at 51 weeks / 23.6 and 53.6% increase in reticulocyte …", "result": 100, "unit": "mg/kg-day"},
      {"measurement": "LOAEL", "setting": "Rattus norvegicus; [9]", "result": 500, "unit": "mg/kg-day"},
      {"measurement": "NOAEL", "setting": "Rattus norvegicus; [9]", "result": 100, "unit": "mg/kg-day"},
      {"measurement": "LOAEL", "setting": "Rattus norvegicus; [10]", "result": 500, "unit": "mg/kg-day"},
      {"measurement": "NOAEL", "setting": "Rattus norvegicus; [10]", "result": 100, "unit": "mg/kg-day"},
      {"measurement": "NOAEL", "setting": "Rattus norvegicus; chronic, duration: 93 days, M/F, Hepatic: Hepatocellular hypertrophy in males at ?100 mg/kg/day and females at 500 mg/kg/day", "result": 500, "unit": "mg/kg-day"},
      {"measurement": "LOAEL", "setting": "Rattus norvegicus; [11]", "result": 100, "unit": "mg/kg-day"},
      {"measurement": "NOAEL", "setting": "Rattus norvegicus; [11]", "result": 20, "unit": "mg/kg-day"},
      {"measurement": "LOAEL", "setting": "Rattus norvegicus; [12]", "result": 500, "unit": "mg/kg-day"},
      {"measurement": "NOAEL", "setting": "Rattus norvegicus; [12]", "result": 200, "unit": "mg/kg-day"},
      {"measurement": "LOAEL", "setting": "Rattus norvegicus; chronic, duration: 126 days, F", "result": 500, "unit": "mg/kg-day"},
      {"measurement": "NOAEL", "setting": "Rattus norvegicus; chronic, duration: 126 days, F", "result": 100, "unit": "mg/kg-day"},
      {"measurement": "NOAEL", "setting": "Rattus norvegicus; chronic, duration: 126 days, M/F", "result": 500, "unit": "mg/kg-day"},
      {"measurement": "LOAEL", "setting": "Rattus norvegicus; [13]", "result": 500, "unit": "mg/kg-day"},
      {"measurement": "NOAEL", "setting": "Rattus norvegicus; [13]", "result": 100, "unit": "mg/kg-day"},
      {"measurement": "LOAEL", "setting": "Rattus norvegicus; [14]", "result": 500, "unit": "mg/kg-day"},
      {"measurement": "NOAEL", "setting": "Rattus norvegicus; [14]", "result": 100, "unit": "mg/kg-day"},
      {"measurement": "NOAEL", "setting": "Rattus norvegicus; reproduction developmental, duration: 44 days, M/F, Gastrointestinal: Stomach erosions/ulceration in dying or sacrificed in extremis rats administered 450 mg/kg/day for 4 days + Hepatic: …", "result": 315, "unit": "mg/kg-day"},
      {"measurement": "LOAEL", "setting": "Rattus norvegicus; [15]", "result": 100, "unit": "mg/kg-day"},
      {"measurement": "NOAEL", "setting": "Rattus norvegicus; [15]", "result": 20, "unit": "mg/kg-day"},
      {"measurement": "NOAEL", "setting": "Rattus norvegicus; subchronic, duration: 44 days, F", "result": 315, "unit": "mg/kg-day"},
      {"measurement": "LOAEL", "setting": "Rattus norvegicus; [16]", "result": 315, "unit": "mg/kg-day"},
      {"measurement": "NOAEL", "setting": "Rattus norvegicus; [16]", "result": 150, "unit": "mg/kg-day"},
      {"measurement": "NOAEL", "setting": "Rattus norvegicus; subchronic, duration: 44 days, M", "result": 315, "unit": "mg/kg-day"},
      {"measurement": "LOAEL", "setting": "Rattus norvegicus; subchronic, duration: 44 days, M/F, Death: 8/30 deaths (includes rats sacrificed in extremis) during first 4 days of exposure", "result": 450, "unit": "mg/kg-day"},
      {"measurement": "LOAEL", "setting": "Rattus norvegicus; [17]", "result": 150, "unit": "mg/kg-day"},
      {"measurement": "NOAEL", "setting": "Rattus norvegicus; [17]", "result": 50, "unit": "mg/kg-day"},
      {"measurement": "LOAEL", "setting": "Rattus norvegicus; [18]", "result": 200, "unit": "mg/kg-day"},
      {"measurement": "NOAEL", "setting": "Rattus norvegicus; [18]", "result": 50, "unit": "mg/kg-day"},
      {"measurement": "NOAEL", "setting": "Rattus norvegicus; subchronic, duration: 90 days, M/F, Sprague-Dawley, Hepatic: Centrilobular hepatocellular hypertrophy at 200 mg/kg/day", "result": 200, "unit": "mg/kg-day"}
    ]}
  ]
}
